Test results: US6355799B1, “Substituted benzene compounds, process for their preparation, and herbicidal and defoliant compositions containing them” (ISK Americas Incorporated, priority 1997, dated 2002)

Assays:
Format in all cases: in vivo
[1] = tested on: upland rice (Oryza sp., var. Tebonnet, RICE); experiment: Post-emerge test, crop safety; settings: rating scale 0-100 (0 no damage, 100 complete death), 14 days after application
Outline: (§1)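 Rating: 0–100 visual injury, 14 DAA. Application: acetone, 187 l/ha, 15–1000 g ai/ha, flat-fan track sprayer with nozzle 40–45 cm above soil or canopy. Post-emerge runs used 0.25% v/v surfactant on 2–3 leaf plants.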

[2] = tested on: field corn (Zea mays L., var. Dekalb 535, CORN); experiment: Post-emerge test, crop safety; settings: rating scale 0-100 (0 no damage, 100 complete death), 14 days after application
Outline: as §1

[3] = tested on: upland rice (Oryza sp., var. Tebonnet, RICE); experiment: Pre-emerge test, crop safety; settings: rating scale 0-100, 14 days after application
Outline: (§2)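 Compounds in acetone were track-sprayed at 187 l/ha, 15–1000 g ai/ha, onto sandy loam pots. Pre-emerge seeds were sown one day before spraying, with surface watering afterwards. Post-emerge plants were at the 2–3 leaf stage and sprayed with 0.25% v/v non-ionic surfactant. Injury was rated 0–100 at 14 days.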

[4] = tested on: field corn (Zea mays L., var. Dekalb 535, CORN); experiment: Pre-emerge test, crop safety; settings: rating scale 0-100, 14 days after application
Outline: as §2

[5] = tested on: green foxtail (Setaria viridis, SETVI); experiment: Post-emerge test, greenhouse herbicide activity screening; settings: rating scale 0-100 (0 no damage, 100 complete death), 14 days after application
Outline: (§3)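 Sandy loam pots; pre-emerge: sown 1 d pre-spray, surface-watered after, then bottom-watered. Post-emerge: sown 8–21 d before, 2–3 leaf stage, + 0.25% v/v NIS, bottom-watered. Acetone, 187 l/ha track spray, 15–1000 g ai/ha. 0–100 injury score, day 14.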

[6] = tested on: sicklepod (Cassia obtusifolia, CASOB); experiment: as above; settings: rating scale 0-100 (0 no damage, 100 complete death), 14 days after application
Outline: as §3

[7] = tested on: barnyardgrass (Echinochloa crus-galli, ECHCG); experiment: as above; settings: rating scale 0-100 (0 no damage, 100 complete death), 14 days after application
Outline: as §3

[8] = tested on: redroot pigweed (Amaranthus retroflexus, AMARE); experiment: as above; settings: rating scale 0-100 (0 no damage, 100 complete death), 14 days after application
Outline: as §3

[9] = tested on: johnsongrass (Sorghum halepense, SORHA); experiment: as above; settings: rating scale 0-100 (0 no damage, 100 complete death), 14 days after application
Outline: as §3

[10] = tested on: lambsquarters (Chenopodium album, CHEAL); experiment: as above; settings: rating scale 0-100 (0 no damage, 100 complete death), 14 days after application
Outline: as §3

[11] = tested on: velvetleaf (Abutilon theophrasti, ABUTH); experiment: as above; settings: rating scale 0-100 (0 no damage, 100 complete death), 14 days after application
Outline: as §3

[12] = tested on: large crabgrass (Digitaria sanguinalis, DIGSA); experiment: as above; settings: rating scale 0-100 (0 no damage, 100 complete death), 14 days after application
Outline: as §3

[13] = tested on: ivyleaf morningglory (Ipomoea hederacea, IPOHE); experiment: as above; settings: rating scale 0-100 (0 no damage, 100 complete death), 14 days after application
Outline: as §3

[14] = tested on: green foxtail (Setaria viridis, SETVI); experiment: Pre-emerge test, greenhouse herbicide activity screening; settings: rating scale 0-100, 14 days after application
Outline: (§4)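 Compounds in acetone were track-sprayed at 15–1000 g ai/ha: pre-emergence onto soil sown the previous day, then top-watered to incorporate and later bottom-watered; post-emergence onto 2–3 leaf plants with 0.25% v/v surfactant, bottom-watered only. Ratings on a 0–100 phytotoxicity scale were taken at day 14.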

[15] = tested on: sicklepod (Cassia obtusifolia, CASOB); experiment: as above; settings: rating scale 0-100, 14 days after application
Outline: as §4

[16] = tested on: barnyardgrass (Echinochloa crus-galli, ECHCG); experiment: as above; settings: rating scale 0-100, 14 days after application
Outline: as §4

[17] = tested on: johnsongrass (Sorghum halepense, SORHA); experiment: as above; settings: rating scale 0-100, 14 days after application
Outline: as §4

[18] = tested on: lambsquarters (Chenopodium album, CHEAL); experiment: as above; settings: rating scale 0-100, 14 days after application
Outline: as §4

[19] = tested on: velvetleaf (Abutilon theophrasti, ABUTH); experiment: as above; settings: rating scale 0-100, 14 days after application
Outline: as §4

[20] = tested on: large crabgrass (Digitaria sanguinalis, DIGSA); experiment: as above; settings: rating scale 0-100, 14 days after application
Outline: as §4

[21] = tested on: ivyleaf morningglory (Ipomoea hederacea, IPOHE); experiment: as above; settings: rating scale 0-100, 14 days after application
Outline: as §4

[22] = tested on: redroot pigweed (Amaranthus retroflexus, AMARE); experiment: as above; settings: rating scale 0-100, 14 days after application
Outline: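 Compounds in acetone were track-sprayed at 15-1000 g ai/ha (187 l/ha) on sandy loam pots: pre-emerge one day after seeding, post-emerge at 2-3 leaf stage with 0.25% v/v non-ionic surfactant. Phytotoxicity was rated 14 days later on a 0 (no damage) to 100 (complete death) scale.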

SMILES: COc1c(Cl)cc(F)c(-n2c(=O)cc(C(F)(F)F)n(C)c2=O)c1CC(Cl)C(=O)OCCC(C)C (single isomer, unassigned) [14-16]
- Post-emerge phytotoxicity rating RICE (crop damage) ([1]; Rate 63 g ai/ha): 0
- Post-emerge phytotoxicity rating RICE (crop damage) ([1]; Rate 250 g ai/ha): 10
- Post-emerge phytotoxicity rating CORN (crop damage) ([2]; Rate 63 g ai/ha): 0
- Post-emerge phytotoxicity rating CORN (crop damage) ([2]; Rate 250 g ai/ha): 70
- Pre-emerge phytotoxicity rating, crop damage RICE ([3]; 63 g ai/ha): 0
- Pre-emerge phytotoxicity rating, crop damage RICE ([3]; 250 g ai/ha): 0
- Pre-emerge phytotoxicity rating, crop damage CORN ([4]; 63 g ai/ha): 0
- Pre-emerge phytotoxicity rating, crop damage CORN ([4]; 250 g ai/ha): 0
- Post-emerge Herbicidal Activity, phytotoxicity rating SETVI ([5]; Rate 63 g ai/ha): 0
- Post-emerge Herbicidal Activity, phytotoxicity rating SETVI ([5]; Rate 250 g ai/ha): 30
- Post-emerge Herbicidal Activity, phytotoxicity rating CASOB ([6]; Rate 63 g ai/ha): 20
- Post-emerge Herbicidal Activity, phytotoxicity rating CASOB ([6]; Rate 250 g ai/ha): 40
- Post-emerge Herbicidal Activity, phytotoxicity rating ECHCG ([7]; Rate 63 g ai/ha): 95
- Post-emerge Herbicidal Activity, phytotoxicity rating ECHCG ([7]; Rate 250 g ai/ha): 100
- Post-emerge Herbicidal Activity, phytotoxicity rating AMARE ([8]; Rate 63 g ai/ha): 60
- Post-emerge Herbicidal Activity, phytotoxicity rating AMARE ([8]; Rate 250 g ai/ha): 100
- Post-emerge Herbicidal Activity, phytotoxicity rating SORHA ([9]; Rate 63 g ai/ha): 0
- Post-emerge Herbicidal Activity, phytotoxicity rating SORHA ([9]; Rate 250 g ai/ha): 30
- Post-emerge Herbicidal Activity, phytotoxicity rating CHEAL ([10]; Rate 63 g ai/ha): 95
- Post-emerge Herbicidal Activity, phytotoxicity rating CHEAL ([10]; Rate 250 g ai/ha): 100
- Post-emerge Herbicidal Activity, phytotoxicity rating ABUTH ([11]; Rate 63 g ai/ha): 60
- Post-emerge Herbicidal Activity, phytotoxicity rating ABUTH ([11]; Rate 250 g ai/ha): 100
- Post-emerge Herbicidal Activity, phytotoxicity rating DIGSA ([12]; Rate 63 g ai/ha): 90
- Post-emerge Herbicidal Activity, phytotoxicity rating DIGSA ([12]; Rate 250 g ai/ha): 100
- Post-emerge Herbicidal Activity, phytotoxicity rating IPOHE ([13]; Rate 63 g ai/ha): 40
- Post-emerge Herbicidal Activity, phytotoxicity rating IPOHE ([13]; Rate 250 g ai/ha): 50
- Pre-emerge herbicidal activity, phytotoxicity rating SETVI ([14]; 63 g ai/ha): 0
- Pre-emerge herbicidal activity, phytotoxicity rating SETVI ([14]; 250 g ai/ha): 0
- Pre-emerge herbicidal activity, phytotoxicity rating CASOB ([15]; 63 g ai/ha): 0
- Pre-emerge herbicidal activity, phytotoxicity rating CASOB ([15]; 250 g ai/ha): 0
- Pre-emerge herbicidal activity, phytotoxicity rating ECHCG ([16]; 63 g ai/ha): 0
- Pre-emerge herbicidal activity, phytotoxicity rating ECHCG ([16]; 250 g ai/ha): 0
- Pre-emerge herbicidal activity, phytotoxicity rating SORHA ([17]; 63 g ai/ha): 0
- Pre-emerge herbicidal activity, phytotoxicity rating SORHA ([17]; 250 g ai/ha): 0
- Pre-emerge herbicidal activity, phytotoxicity rating CHEAL ([18]; 63 g ai/ha): 100
- Pre-emerge herbicidal activity, phytotoxicity rating CHEAL ([18]; 250 g ai/ha): 100
- Pre-emerge herbicidal activity, phytotoxicity rating ABUTH ([19]; 63 g ai/ha): 0
- Pre-emerge herbicidal activity, phytotoxicity rating ABUTH ([19]; 250 g ai/ha): 90
- Pre-emerge herbicidal activity, phytotoxicity rating DIGSA ([20]; 63 g ai/ha): 50
- Pre-emerge herbicidal activity, phytotoxicity rating DIGSA ([20]; 250 g ai/ha): 100
- Pre-emerge herbicidal activity, phytotoxicity rating IPOHE ([21]; 63 g ai/ha): 0
- Pre-emerge herbicidal activity, phytotoxicity rating IPOHE ([21]; 250 g ai/ha): 0
- Pre-emerge herbicidal activity, phytotoxicity rating AMARE ([22]; 63 g ai/ha): 100
- Pre-emerge herbicidal activity, phytotoxicity rating AMARE ([22]; 250 g ai/ha): 100
